Test results published in patent US8791132B2, “Compounds and methods for treatment of hypertension” (Medivation Technologies, Inc., priority 2011, dated 2014).

Key:
[1] = biological target: T1, human recombinant adrenergic α2B receptor (Homo sapiens, UniProt P18089); assay: Radioligand binding, adrenergic α2B ([3H]Rauwolscine); details: for Percentage inhibition of ligand binding, Adrenergic α2B / inhibition at 0.03 µM: compound at 0.03 μM, [3H]Rauwolscine, repeat assays, each datapoint shown; for Percentage inhibition of ligand binding, Adrenergic α2B: 0.03 µM; for inhibition at 0.03 µM: read-out: Percentage inhibition of ligand binding, Adrenergic α2B
T1 construct: expressed in transfected cells; host or cells: CHO-K1
T1 sequence (P18089 1-450): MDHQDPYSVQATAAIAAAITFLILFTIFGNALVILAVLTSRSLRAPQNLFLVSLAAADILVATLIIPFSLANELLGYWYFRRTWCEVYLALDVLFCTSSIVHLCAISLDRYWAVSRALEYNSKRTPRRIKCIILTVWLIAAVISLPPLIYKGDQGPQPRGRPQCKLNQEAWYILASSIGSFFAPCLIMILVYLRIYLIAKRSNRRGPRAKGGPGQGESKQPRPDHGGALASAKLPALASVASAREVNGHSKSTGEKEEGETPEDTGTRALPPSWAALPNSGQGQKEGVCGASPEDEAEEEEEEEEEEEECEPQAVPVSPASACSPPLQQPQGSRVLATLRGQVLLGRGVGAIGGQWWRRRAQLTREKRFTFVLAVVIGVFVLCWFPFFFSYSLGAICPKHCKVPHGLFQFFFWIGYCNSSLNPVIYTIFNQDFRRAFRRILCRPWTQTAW
Summary of the method: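 Assay used CHO-K1-expressed human α2B receptor in Tris-HCl pH 7.4 buffer with MgCl2, EDTA and BSA; 60 min incubation at 25 °C.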

[2] = biological target: T2, human recombinant adrenergic α2A receptor (Homo sapiens, UniProt P08913); assay: Radioligand binding, adrenergic α2A ([3H]MK-912); details: for Percentage inhibition of ligand binding, Adrenergic α2A / inhibition at 0.1 µM: compound at 0.1 μM; for Percentage inhibition of ligand binding, Adrenergic α2A: 0.1 µM
T2 construct: expressed in transfected cells; host or cells: insect Sf9 cells
T2 sequence (P08913 1-465): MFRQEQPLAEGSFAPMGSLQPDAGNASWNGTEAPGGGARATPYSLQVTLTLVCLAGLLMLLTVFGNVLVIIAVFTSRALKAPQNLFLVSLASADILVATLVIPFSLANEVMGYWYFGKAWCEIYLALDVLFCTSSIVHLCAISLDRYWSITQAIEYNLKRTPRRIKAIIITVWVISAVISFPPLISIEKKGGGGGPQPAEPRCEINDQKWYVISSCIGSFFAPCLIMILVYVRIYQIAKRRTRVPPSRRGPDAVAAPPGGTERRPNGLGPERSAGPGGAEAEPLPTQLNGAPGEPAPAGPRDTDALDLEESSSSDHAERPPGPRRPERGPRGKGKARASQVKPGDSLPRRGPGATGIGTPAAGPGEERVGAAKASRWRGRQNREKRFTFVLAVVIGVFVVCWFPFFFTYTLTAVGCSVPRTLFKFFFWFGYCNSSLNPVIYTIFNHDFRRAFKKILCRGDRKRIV
Summary of the method: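 Receptor expressed in insect Sf9 cells, assayed in 50 mM Tris-HCl pH 7.4 with 12.5 mM MgCl2 and 2 mM EDTA. Compounds incubated with 1 nM [3H]MK-912 for 60 min at 25 °C; nonspecific binding defined with 10 μM WB-4101. Filter-bound radioactivity counted; values are percent inhibition of specific binding.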

[3] = biological target: T3, rat adrenergic α1B receptor (Rattus norvegicus, UniProt P15823); assay: Radioligand binding, adrenergic α1B ([3H]Prazosin); details: [3H]Prazosin, repeat assays, each datapoint shown; for Percentage inhibition of ligand binding, Adrenergic α1B / inhibition at 0.1 µM: compound at 0.1 μM; for Percentage inhibition of ligand binding, Adrenergic α1B: 0.1 µM
T3 construct: rat adrenergic α1B receptor obtained from Wistar Rat liver; from tissue; host or cells: Wistar rat liver
T3 sequence (P15823 1-515): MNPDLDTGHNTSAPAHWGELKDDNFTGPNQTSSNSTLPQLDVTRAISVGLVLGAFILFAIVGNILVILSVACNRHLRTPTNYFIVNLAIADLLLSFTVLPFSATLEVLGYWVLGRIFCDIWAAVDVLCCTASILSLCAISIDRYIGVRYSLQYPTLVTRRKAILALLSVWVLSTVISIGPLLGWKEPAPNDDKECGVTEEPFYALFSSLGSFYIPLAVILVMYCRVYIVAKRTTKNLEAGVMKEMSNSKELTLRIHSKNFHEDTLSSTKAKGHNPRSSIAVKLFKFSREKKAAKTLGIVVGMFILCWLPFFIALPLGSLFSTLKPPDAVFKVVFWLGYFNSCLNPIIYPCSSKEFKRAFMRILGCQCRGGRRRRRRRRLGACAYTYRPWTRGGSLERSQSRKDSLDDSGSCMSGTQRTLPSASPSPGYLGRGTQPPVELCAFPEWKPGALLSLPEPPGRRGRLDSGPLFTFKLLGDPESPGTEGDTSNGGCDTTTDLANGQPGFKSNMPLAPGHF
Summary of the method: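 Filter binding with Wistar rat liver α1B preparation: test compound plus 0.25 nM [3H]prazosin, 1 h at 25° C in modified Tris-HCl buffer pH 7.4.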

[4] = [3H]MK-912, repeat assays, each datapoint shown
[5] = [3H]MK-912, repeat assays, each datapoint shown, read-out: Percentage inhibition of ligand binding, Adrenergic α2A
[6] = read-out: Percentage inhibition of ligand binding, Adrenergic α1B

Compound | Percentage inhibition of ligand binding, Adrenergic α2B [1] | Percentage inhibition of ligand binding, Adrenergic α2A [2, 4] | Percentage inhibition of ligand binding, Adrenergic α1B [3] | further results
CN1CCc2c(c3cc(Cl)ccc3n2CC(C)(O)c2cccnc2)C1 (single isomer, unassigned) [31a] | 97% | 27% | 28% | inhibition at 0.03 µM [1]: 93%; Ki ([1]; read-out: Ki α2B): 1.58 nM; Ki [2]: 167 nM; inhibition at 0.03 µM ([2]; compound at 0.03 μM, [3H]MK-912, repeat assays, each datapoint shown, read-out: Percentage inhibition of ligand binding, Adrenergic α2A): 11%; inhibition at 0.1 µM [2, 5]: 19%; inhibition at 0.03 µM ([3]; compound at 0.03 μM, read-out: Percentage inhibition of ligand binding, Adrenergic α1B): 16%; inhibition at 0.1 µM [3, 6]: 25%
CCC1c2c(c3cc(C)ccc3n2CC(O)c2ccncc2)C2CCN1C2 (single isomer, unassigned) [36a] | 33% | 8% |  | inhibition at 0.1 µM [3, 6]: 14%
CCC1c2c(c3cc(C)ccc3n2CC(O)c2ccncc2)C2CCN1C2 (single isomer, unassigned) [36b] | −1% | 0% | 11% | 
OC(Cn1c2c(c3cccnc31)CN1CCCC1C2)c1ccncc1 (single isomer, unassigned) [37a] | 2% | 18% | −5% | 
OC(Cn1c2c(c3cccnc31)CN1CCCC1C2)c1ccncc1 (single isomer, unassigned) [37b] | −3% | −20% | −10% | 
OC(Cn1c2c(c3cccnc31)CN1CCCC1C2)c1ccncc1 (single isomer, unassigned) [37c] | 0% | 6% | 2% | 
OC(Cn1c2c(c3cccnc31)CN1CCCC1C2)c1ccncc1 (single isomer, unassigned) [37d] | −3% | 8% | 2% | 
Cc1ccc2c(c1)c1c(n2CC(O)c2ccncc2)C(C)N2CCC1C2 (single isomer, unassigned) [38a] | 35% | 14% | 11% | 
Cc1ccc2c(c1)c1c(n2CC(O)c2ccncc2)C(C)N2CCC1C2 (single isomer, unassigned) [38b] | 17% | −1% | 20% | 
Cc1ccc2c(c1)c1c(n2CC(O)c2ccncc2)CCNC1 (single isomer, unassigned) [39b, 2-(8-methyl-1,2,3,4-tetrahydro-pyrido[4,3-b]indol-5-yl)-1-pyridin-4-yl-ethanol] | 28% |  |  | inhibition at 0.1 µM [2, 5]: 1%; inhibition at 0.1 µM [3, 6]: 24%
CN1CCc2c(c3ccc(C(F)(F)F)cc3n2CC(O)c2cccnc2)C1 (single isomer, unassigned) [40a] |  |  | 2% | inhibition at 0.03 µM [1]: 27%; inhibition at 0.1 µM [2, 5]: 7%
CN1CCc2c(c3ccc(C(F)(F)F)cc3n2CC(O)c2cccnc2)C1 (single isomer, unassigned) [40b] | 29% | 13% | −2% | 
CN1CCc2c(n(CC(O)c3ccncc3)c3ccc(Cl)cc23)C1 (single isomer, unassigned) [41b] | 50% | 8% | 50% | 
CC(O)(Cn1c2c(c3cc(Cl)ccc31)CNCC2)c1ccncn1 (single isomer, unassigned) [42a, 1-(8-chloro-1,2,3,4-tetrahydro-pyrido[4,3-b]indol-5-yl)-2-pyrimidin-4-yl-propan-2-ol] |  | 3% |  | inhibition at 0.03 µM [1]: 29%; inhibition at 0.1 µM [3, 6]: 15%
CC(O)(Cn1c2c(c3cc(Cl)ccc31)CNCC2)c1ccncn1 (single isomer, unassigned) [42b, 1-(8-chloro-1,2,3,4-tetrahydro-pyrido[4,3-b]indol-5-yl)-2-pyrimidin-4-yl-propan-2-ol] | 34% | 12% | 19% | 
Cc1ccc2c(c1)c1c(n2CC(O)c2cccnc2)CN(C)CC1 (single isomer, unassigned) [43a, 2-(2,6-dimethyl-1,2,3,4-tetrahydro-β-carbolin-9-yl)-1-pyridin-3-yl-ethanol] | 51% | 9% | 33% | 
Cc1ccc2c(c1)c1c(n2CC(O)c2cccnc2)CN(C)CC1 (single isomer, unassigned) [43b, 2-(2,6-dimethyl-1,2,3,4-tetrahydro-β-carbolin-9-yl)-1-pyridin-3-yl-ethanol] | 27% | 13% | 46% | 
COc1cccc2c3c(n(CC(O)c4ccncc4)c12)CCN(C)C3 (single isomer, unassigned) [44a, 2-(6-methoxy-2-methyl-3,4-dihydro-1H-pyrido[4,3-b]indol-5(2H)-yl)-1-(pyridin-4-yl)ethanol] | 33% | 11% | 12% | 
COc1cccc2c3c(n(CC(O)c4ccncc4)c12)CCN(C)C3 (single isomer, unassigned) [44b, 2-(6-methoxy-2-methyl-3,4-dihydro-1H-pyrido[4,3-b]indol-5(2H)-yl)-1-(pyridin-4-yl)ethanol] | 75% | 1% | 18% | 
CN1CCc2c(c3cccc(Cl)c3n2CC(O)c2ccncc2)C1 (single isomer, unassigned) [45a] | 54% | −4% |  | inhibition at 0.1 µM [3, 6]: 23%
CN1CCc2c(c3cccc(Cl)c3n2CC(O)c2ccncc2)C1 (single isomer, unassigned) [45b] | 96% | 16% | 24% | 
Cc1ccc2c(c1)c1c(n2CC(O)c2ccncc2)CCN2CCCCC12 (single isomer, unassigned) [47a] | 40% | 10% | 58% | 
